# Patent US6194387A, “6-O-aklyl erythromycin B oxime” (Abbott Laboratories, priority 1999, dated 2001)
# Like-named read-outs stand apart in the source and are kept apart here.
# Key:
# EN[…] [1] = test: in vitro antibacterial activity, agar dilution MIC; assay type: cell-based, Enterobacter aerogenes; conditions: Klebsiella aerogenes, ATCC13048
# Method: (§1) 6-O-Methyl-9-oxime erythromycin B prepared in accordance with Examples 1 and 2 was assayed in vitro for anitbacterial activity as follows: Twelve petri dishes containing successive aqueous dilutions of the test compound mixed with 10 mL of sterilized Brain Heart Infusion (BHI) agar (Difco 0418-01-5) were prepared. Each plate was inoculated with 1:100 (or 1:10 for slow-growing strains, such as Micrococcus and Streptococcus) dilutions of up to 32 different micoorganisims, using a Steers replicatore block. The inoculated plates were incubated at 35-37° C. for 20 to 24 hours. In addition, a control plate, using BHI agar containing no test compound, was prepared and incubated at the beginning and end of each test.
# (§2) An additional plate containing a compound having known susceptibility patterns for the organisms being tested and belonging to the same antibiotic class as the test compound was also prepared and incubated as further control, as well as to provide test-to-test comparability. Erythromycin A was used for this purpose.
# (§3) After incubation, each disk was read. The minimum inhibitory concentration (MIC) was defined as the lowest concentration of drug yielding no growth, a slight haze, or sparsely isolated colonies on the inoculum spot as compared to the growth control.
# M[…] [2] = test: in vitro antibacterial activity, agar dilution MIC; assay type: cell-based, Micrococcus pyogenes; conditions: Staphylococcus aureus, ATCC9341
# Method: as §1, §2, §3
# CANDIDA ALBICANS = test: in vitro antimicrobial activity, agar dilution MIC; assay type: cell-based; conditions: Table 2, CCH 442, read-out: MIC
# Method: as §1, §2, §3
# micoorganisims = test: in vitro antibacterial activity, overall conclusion; assay type: cell-based
# Method: as §1, §2, §3
# ESCHERICHIA COLI = test: microbe, parasite or virus in culture; assay type: cell-based
# Method: as §1, §2, §3
# [3] = tested on: STAPHYLOCOCCUS PNEUMONIAE; test: in vitro antibacterial activity, agar dilution MIC; assay type: cell-based
# Method: as §1, §2, §3
# EN[…] [4] = test: in vitro antibacterial activity, agar dilution MIC; assay type: cell-based; conditions: Enterococcus faecium, ATCC8043
# Method: as §1, §2, §3
# MYCOBACTERIIUM SMEGMATIS = test: in vitro antibacterial activity, agar dilution MIC; assay type: cell-based; conditions: Table 2; ATCC 114; read-out: MIC
# Method: as §1, §2, §3
# KLEBSIELLA PNEUMONIAE = test: in vitro antibacterial activity, agar dilution MIC; assay type: cell-based; conditions: ATCC8045, Table 2, ATCC 8045, read-out: MIC
# Method: as §1, §2, §3
# HAEMOPHILUS INFLUENZAE = test: in vitro antibacterial activity, agar dilution MIC; assay type: cell-based
# Method: as §1, §2, §3
# STAPHYLOCOCCUS AUREUS = test: in vitro antibacterial activity, agar dilution MIC; assay type: cell-based
# Method: as §1, §2, §3
# STAPHYLOCOCCUS BOVIS = test: in vitro antibacterial activity, agar dilution MIC; assay type: cell-based; conditions: Table 2, A-5169, read-out: MIC
# Method: as §1, §2, §3
# PROVIDENCIA STUART II = test: in vitro antibacterial activity, agar dilution MIC; assay type: cell-based; conditions: Table 2, CMX 640, read-out: MIC
# Method: as §1, §2, §3
# PSEUDOMONAS CEPACIA = test: in vitro antibacterial activity, agar dilution MIC; assay type: cell-based; conditions: Burkholderia cepacia; Table 2; 2961; read-out: MIC
# Method: as §1, §2, §3
# [5] = tested on: STAPHYLOCOCCUS EPIDERMIDIS; test: in vitro antibacterial activity, agar dilution MIC; assay type: cell-based; conditions: Table 2, 3519, read-out: MIC
# Method: as §1, §2, §3
# [6] = tested on: ACINETOBACTER CALCOACETICUS; test: in vitro antibacterial activity, agar dilution MIC; assay type: cell-based; conditions: Table 2, CMX 669, read-out: MIC
# Method: as §1, §2, §3
# PSEUDOMONAS AERUGINOSA = test: in vitro antibacterial activity, agar dilution MIC; assay type: cell-based
# Method: as §1, §2, §3
# STAPHYLOCOCCUS PYOGENES = test: in vitro antibacterial activity, agar dilution MIC; assay type: cell-based
# Method: as §1, §2, §3
# M[…] [7] = test: in vitro antibacterial activity, agar dilution MIC; assay type: cell-based; conditions: Micrococcus luteus, ATCC4698
# Method: as §1, §2, §3
# NOCARDIA ASTEROIDES = test: in vitro antibacterial activity, agar dilution MIC; assay type: cell-based; conditions: ATCC9970, Table 2, ATCC 9970, read-out: MIC
# Method: as §1, §2, §3
smiles,measurement,setting,value
CC[C@H]1OC(=O)[C@H](C)[C@@H](O[C@H]2C[C@@](C)(OC)[C@@H](O)[C@H](C)O2)[C@H](C)[C@@H](O[C@@H]2O[C@H](C)C[C@H](N(C)C)[C@H]2O)[C@](C)(OC)C[C@@H](C)C(=NO)[C@H](C)[C@@H](O)[C@H]1C [6-O-Methyl-9-oxime erythromycin B],MIC,EN[…] [1],> 100 µg/mL
same,MIC,M[…] [2],0.05 µg/mL
same,MIC,CANDIDA ALBICANS,> 100 µg/mL
same,antibacterial activity (conclusion from Tables 2 and 3),micoorganisims,effective antibacterial agent
same,MIC,"ESCHERICHIA COLI; Table 2, DC-2",> 100 µg/mL
same,MIC,"ESCHERICHIA COLI; Table 2, H560",100 µg/mL
same,MIC,"ESCHERICHIA COLI; Table 2, JUHL",50 µg/mL
same,MIC,"ESCHERICHIA COLI; Table 2, KNK 437",100 µg/mL
same,MIC,"ESCHERICHIA COLI; Table 2, SS",0.78 µg/mL
same,MIC,"[3]; Table 3, 5649, read-out: MIC",16 µg/mL
same,MIC,"[3]; Table 3, 5654, read-out: MIC",16 µg/mL
same,MIC,"[3]; Table 3, 5728, read-out: MIC",> 128 µg/mL
same,MIC,"[3]; Table 3, 5737, read-out: MIC",> 128 µg/mL
same,MIC,"[3]; Table 3, 5979, read-out: MIC",> 128 µg/mL
same,MIC,"[3]; Table 3, GYR 1171, read-out: MIC",0.03 µg/mL
same,MIC,EN[…] [4],0.1 µg/mL
same,MIC,MYCOBACTERIIUM SMEGMATIS,0.39 µg/mL
same,MIC,KLEBSIELLA PNEUMONIAE,> 100 µg/mL
same,MIC,"HAEMOPHILUS INFLUENZAE; ATCC10211, Table 3, ATCC 10211, read-out: MIC",16 µg/mL
same,MIC,"HAEMOPHILUS INFLUENZAE; ATCC19418, Table 3, ATCC 19418, read-out: MIC",32 µg/mL
same,MIC,"HAEMOPHILUS INFLUENZAE; ATCC43095, Table 3, ATCC 43095, read-out: MIC",8 µg/mL
same,MIC,"HAEMOPHILUS INFLUENZAE; Table 3, CMX 503B, read-out: MIC",16 µg/mL
same,MIC,"HAEMOPHILUS INFLUENZAE; Table 3, CMX 504, read-out: MIC",16 µg/mL
same,MIC,"HAEMOPHILUS INFLUENZAE; Table 3, CMX 519A, read-out: MIC",16 µg/mL
same,MIC,"HAEMOPHILUS INFLUENZAE; Table 3, CMX 566A, read-out: MIC",16 µg/mL
same,MIC,"HAEMOPHILUS INFLUENZAE; Table 3, CMX 588A, read-out: MIC",16 µg/mL
same,MIC,"HAEMOPHILUS INFLUENZAE; Table 3, CMX 632A, read-out: MIC",8 µg/mL
same,MIC,"HAEMOPHILUS INFLUENZAE; Table 3, CMX 747C, read-out: MIC",16 µg/mL
same,MIC,"HAEMOPHILUS INFLUENZAE; Table 3, CMX 751, read-out: MIC",32 µg/mL
same,MIC,"HAEMOPHILUS INFLUENZAE; Table 3, GYR 1177, read-out: MIC",1 µg/mL
same,MIC,"HAEMOPHILUS INFLUENZAE; Table 3, GYR 1435, read-out: MIC",16 µg/mL
same,MIC,"HAEMOPHILUS INFLUENZAE; Table 3, SOL AMP R, read-out: MIC",16 µg/mL
same,MIC,"HAEMOPHILUS INFLUENZAE; Table 3, SPK AMP R, read-out: MIC",16 µg/mL
same,MIC,"STAPHYLOCOCCUS AUREUS; ATCC6538P, Table 2, ATCC 6538P, read-out: MIC",0.39 µg/mL
same,MIC,"STAPHYLOCOCCUS AUREUS; Table 2, A5177, read-out: MIC",6.2 µg/mL
same,MIC,"STAPHYLOCOCCUS AUREUS; Table 2, A-5278, read-out: MIC",> 100 µg/mL
same,MIC,"STAPHYLOCOCCUS AUREUS; Table 2, CMX 553, read-out: MIC",0.78 µg/mL
same,MIC,"STAPHYLOCOCCUS AUREUS; Table 2, CMX 642A, read-out: MIC",0.78 µg/mL
same,MIC,"STAPHYLOCOCCUS AUREUS; Table 2, NCTC10649M, read-out: MIC",0.39 µg/mL
same,MIC,STAPHYLOCOCCUS BOVIS,0.05 µg/mL
same,MIC,PROVIDENCIA STUART II,> 100 µg/mL
same,MIC,PSEUDOMONAS CEPACIA,> 100 µg/mL
same,MIC,[5],0.39 µg/mL
same,MIC,[6],50 µg/mL
same,MIC,"PSEUDOMONAS AERUGINOSA; Table 2, 5007, read-out: MIC",> 100 µg/mL
same,MIC,"PSEUDOMONAS AERUGINOSA; Table 2, DPHD-2862, read-out: MIC",> 100 µg/mL
same,MIC,"PSEUDOMONAS AERUGINOSA; Table 2, DPHD-5263, read-out: MIC",> 100 µg/mL
same,MIC,"PSEUDOMONAS AERUGINOSA; Table 2, K799/61, read-out: MIC",1.56 µg/mL
same,MIC,"STAPHYLOCOCCUS PYOGENES; Table 2, 930",> 100 µg/mL
same,MIC,"STAPHYLOCOCCUS PYOGENES; Table 2, EES61, read-out: MIC",0.02 µg/mL
same,MIC,"STAPHYLOCOCCUS PYOGENES; Table 2, PIU 2548, read-out: MIC",6.2 µg/mL
same,MIC,"STAPHYLOCOCCUS PYOGENES; Table 3, 930, read-out: MIC",> 128 µg/mL
same,MIC,"STAPHYLOCOCCUS PYOGENES; Table 3, EES61, read-out: MIC",0.03 µg/mL
same,MIC,"STAPHYLOCOCCUS PYOGENES; Table 3, PIU 2548, read-out: MIC",16 µg/mL
same,MIC,M[…] [7],0.78 µg/mL
same,MIC,NOCARDIA ASTEROIDES,0.1 µg/mL
